Source: ChEMBL document CHEMBL3132854, “Synthesis and anticancer activity evaluation of resveratrolchalcone conjugates” (2014)

Experiments:
Type in all cases: functional
[1] = tested on: DU-145; assay: Cytotoxicity against human DU145 cells by sulforhodamine B assay
[2] = tested on: MOLT-4; assay: Cytotoxicity against human MOLT4 cells by sulforhodamine B assay
[3] = tested on: SNB-75; assay: Cytotoxicity against human SNB75 cells by sulforhodamine B assay
[4] = tested on: K562; assay: Cytotoxicity against human K562 cells by sulforhodamine B assay
[5] = tested on: OVCAR-8; assay: Cytotoxicity against human OVCAR8 cells by sulforhodamine B assay
[6] = tested on: HCT-15; assay: Cytotoxicity against human HCT15 cells by sulforhodamine B assay
[7] = tested on: HL-60(TB); assay: Cytotoxicity against human HL-60(TB) cells by sulforhodamine B assay
[8] = tested on: SK-MEL-5; assay: Cytotoxicity against human SK-MEL-5 cells by sulforhodamine B assay
[9] = tested on: COLO 205; assay: Cytotoxicity against human COLO205 cells by sulforhodamine B assay
[10] = tested on: U-251; assay: Cytotoxicity against human U251 cells by sulforhodamine B assay
[11] = tested on: LOX IMVI; assay: Cytotoxicity against human LOXIMVI cells by sulforhodamine B assay
[12] = tested on: A498; assay: Cytotoxicity against human A498 cells by sulforhodamine B assay
[13] = tested on: M14; assay: Cytotoxicity against human M14 cells by sulforhodamine B assay
[14] = tested on: PC-3; assay: Cytotoxicity against human PC3 cells by sulforhodamine B assay
[15] = tested on: 786-0; assay: Cytotoxicity against human 786-0 cells by sulforhodamine B assay
[16] = tested on: MDA-MB-435; assay: Cytotoxicity against human MDA-MB-435 cells by sulforhodamine B assay
[17] = tested on: NCI-H226; assay: Cytotoxicity against human NCI-H226 cells by sulforhodamine B assay
[18] = tested on: RPMI-8226; assay: Cytotoxicity against human RPMI8226 cells by sulforhodamine B assay
[19] = tested on: SW-620; assay: Cytotoxicity against human SW620 cells by sulforhodamine B assay
[20] = tested on: HCC 2998; assay: Cytotoxicity against human HCC2998 cells by sulforhodamine B assay
[21] = Cytotoxicity against human NCI-ADR-RES cells by sulforhodamine B assay
[22] = tested on: SF-268; assay: Cytotoxicity against human SF268 cells by sulforhodamine B assay
[23] = tested on: SK-MEL-2; assay: Cytotoxicity against human SK-MEL-2 cells by sulforhodamine B assay
[24] = tested on: UACC-62; assay: Cytotoxicity against human UACC62 cells by sulforhodamine B assay
[25] = tested on: IGROV-1; assay: Cytotoxicity against human IGROV1 cells by sulforhodamine B assay
[26] = Cytotoxicity against human UACC257 cells by sulforhodamine B assay
[27] = tested on: RXF 393; assay: Cytotoxicity against human RXF393 cells by sulforhodamine B assay
[28] = Cytotoxicity against human OVCAR4 cells by sulforhodamine B assay
[29] = tested on: MCF7; assay: Cytotoxicity against human MCF7 cells by sulforhodamine B assay
[30] = tested on: ACHN; assay: Cytotoxicity against human ACHN cells by sulforhodamine B assay
[31] = tested on: SK-MEL-28; assay: Cytotoxicity against human SK-MEL-28 cells by sulforhodamine B assay
[32] = tested on: HT-29; assay: Cytotoxicity against human HT-29 cells by sulforhodamine B assay
[33] = tested on: SN12C; assay: Cytotoxicity against human SN12C cells by sulforhodamine B assay
[34] = tested on: Malme-3M; assay: Cytotoxicity against human MALME-3M cells by sulforhodamine B assay
[35] = tested on: OVCAR-3; assay: Cytotoxicity against human OVCAR3 cells by sulforhodamine B assay
[36] = tested on: HCT-116; assay: Cytotoxicity against human HCT116 cells by sulforhodamine B assay
[37] = tested on: A549; assay: Cytotoxicity against human A549/ATCC cells by sulforhodamine B assay
[38] = tested on: SNB-19; assay: Cytotoxicity against human SNB19 cells by sulforhodamine B assay
[39] = tested on: NCI-H23; assay: Cytotoxicity against human NCI-H23 cells by sulforhodamine B assay
[40] = read-out: LC50 (the source's name)

COc1ccc(C(=O)/C=C/c2ccc(/C=C/c3cc(OC)c(OC)c(OC)c3)cc2)cc1
GI50 [1]: 10.2 µM
TGI [1]: > 100 µM
CC50 [1, 40]: > 100 µM
GI50 [2]: 3.49 µM
TGI [2]: > 100 µM
CC50 [2, 40]: > 100 µM
GI50 [3]: 5.5 µM
TGI [3]: 47.7 µM
CC50 [3, 40]: > 100 µM
GI50 [4]: 3.03 µM
TGI [4]: > 100 µM
CC50 [4, 40]: > 100 µM
GI50 [5]: 3.76 µM
TGI [5]: 61.1 µM
CC50 [5, 40]: > 100 µM
GI50 [6]: 2.42 µM
TGI [6]: > 100 µM
CC50 [6, 40]: > 100 µM
GI50 [7]: 4.49 µM
TGI [7]: > 100 µM
CC50 [7, 40]: > 100 µM
GI50 [8]: 3.39 µM
TGI [8]: 19.2 µM
CC50 [8, 40]: > 100 µM
GI50 [9]: 13.7 µM
TGI [9]: > 100 µM
CC50 [9, 40]: > 100 µM
GI50 [10]: 5.09 µM
TGI [10]: 54.7 µM
CC50 [10, 40]: > 100 µM
GI50 [11]: 3.76 µM
TGI [11]: 60.9 µM
CC50 [11, 40]: > 100 µM
GI50 [12]: 18.6 µM
TGI [12]: > 100 µM
CC50 [12, 40]: > 100 µM
GI50 [13]: 9.61 µM
TGI [13]: > 100 µM
CC50 [13, 40]: > 100 µM
GI50 [14]: 5.65 µM
TGI [14]: > 100 µM
CC50 [14, 40]: > 100 µM
GI50 [15]: 10.4 µM
TGI [15]: 71.1 µM
CC50 [15, 40]: > 100 µM
GI50 [16]: 4.28 µM
TGI [16]: 47.7 µM
CC50 [16, 40]: > 100 µM
GI50 [17]: 3.57 µM
TGI [17]: 22.8 µM
CC50 [17, 40]: > 100 µM
GI50 [18]: 2.57 µM
TGI [18]: 8.54 µM
CC50 [18, 40]: > 100 µM
GI50 [19]: 4.5 µM
TGI [19]: > 100 µM
CC50 [19, 40]: > 100 µM
GI50 [20]: 38.4 µM
TGI [20]: > 100 µM
CC50 [20, 40]: > 100 µM
GI50 [21]: 5.46 µM
TGI [21]: > 100 µM
CC50 [21, 40]: > 100 µM
GI50 [22]: 6.08 µM
TGI [22]: 88.3 µM
CC50 [22, 40]: > 100 µM
GI50 [23]: 1.89 µM
TGI [23]: > 100 µM
CC50 [23, 40]: > 100 µM
GI50 [24]: 7.13 µM
TGI [24]: > 100 µM
CC50 [24, 40]: > 100 µM
GI50 [25]: 9.24 µM
TGI [25]: 76.4 µM
CC50 [25, 40]: > 100 µM
GI50 ([26]; UACC-257): 9 µM
TGI ([26]; UACC-257): > 100 µM
CC50 ([26]; UACC-257, read-out: LC50 (the source's name)): > 100 µM
GI50 [27]: 8.01 µM
TGI [27]: 43.6 µM
CC50 [27, 40]: > 100 µM
GI50 ([28]; OVCAR-4): 6.31 µM
TGI ([28]; OVCAR-4): 47.3 µM
CC50 ([28]; OVCAR-4, read-out: LC50 (the source's name)): > 100 µM
GI50 [29]: 2.18 µM
TGI [29]: 36.6 µM
CC50 [29, 40]: > 100 µM
GI50 [30]: 11.6 µM
TGI [30]: > 100 µM
CC50 [30, 40]: > 100 µM
GI50 [31]: 1.69 µM
TGI [31]: > 100 µM
CC50 [31, 40]: > 100 µM
GI50 [32]: 4.17 µM
TGI [32]: > 100 µM
CC50 [32, 40]: > 100 µM
GI50 [33]: 9.61 µM
TGI [33]: > 100 µM
CC50 [33, 40]: > 100 µM
GI50 [34]: 13.2 µM
TGI [34]: > 100 µM
CC50 [34, 40]: > 100 µM
GI50 [35]: 3.92 µM
TGI [35]: 14.3 µM
CC50 [35, 40]: 74.4 µM
GI50 [36]: 2.62 µM
TGI [36]: > 100 µM
CC50 [36, 40]: > 100 µM
GI50 [37]: 4.67 µM
TGI [37]: 80.9 µM
CC50 [37, 40]: > 100 µM
GI50 [38]: 21.1 µM
TGI [38]: > 100 µM
CC50 [38, 40]: > 100 µM
GI50 [39]: 5.39 µM
TGI [39]: 65.9 µM
CC50 [39, 40]: > 100 µM
